Assay results as given in patent US20060083794A1, “Use of an extract from the plant argania spinosa” (priority 2002, published 2006).

System: 5-α-reductase
Assay: Metabolization of 14C testosterone to DHT in reconstructed epidermis (thin-layer chromatography, phosphoimager)
Type: cell-based, human
Details: Finasterid 10 μM; control = 100
Procedure: • Epidermis SkinEthic (17 days, 0.63 cm^2) in culture, 37° C., 5% CO2 • Reference substance: Finasteride • Testosterone: [4-14-C]
The epidermis was precultivated for 24 hours on plates with 24 positions. The experiments with the products and the reference substance Finasterid (10 μm) were carried out three times (3 epidermises per experiment). After treatment for 24 hours, the media of the subepidermis were renewed and replaced by 300 μl of fresh culture medium. 100 μl of radioactively marked testosterone solution were applied to the upper surface (horny layer) of the epidermis (TO). After another 24 hours, the subepidermis medium was removed for analysis.
The steroids present in the culture medium were extracted for analysis of the metabolism and separated into their molecular derivatives by thin-layer chromatography (on silica gel). The quantity of transformed testosterone was determined by radioactive counting of the various spots using a phosphoimager.

CC(C)(C)NC(=O)[C@H]1CC[C@H]2[C@@H]3CC[C@H]4NC(=O)C=C[C@]4(C)[C@H]3CC[C@]12C [Finasterid, Finasteride]
DHT formed in %: 8%
